Measurements from patent US7291649B2, “Forming germicidal aromatic dialdehydes with acetals” (Ethicon, Inc., priority 2005, dated 2007).

What was measured:
[1] = Hydrolysis of OPA acetals to OPA in distilled water at various pH, monitored by GC/MS; assay type: physicochemical; details: room temperature
Protocol: The reactions of 1,3-dimethoxyphthalan, 1,3-diethoxyphthalan, a PEG 200 pegylated OPA acetal at various pH in distilled water were evaluated at room temperature. The acetals were suspended in distilled water, followed by pH measurement, and pH adjustment with either hydrogen chloride (HCl), phthalic acid, or sodium hydroxide (NaOH), depending on the particular pH. The mixture was stirred at room temperature and monitored by gas chromatograph/mass spectroscopy (GC/MS) at various time intervals.
The hydrolysis rate depends upon pH. Over the range of pH investigated, the lower the pH, the faster the hydrolysis rate.

[2] = cited from earlier work
[3] = Hydrolysis of the tetramethyl acetal of IPA to IPA in water, gas chromatography; assay type: physicochemical; details: pH 4.34 (HCl)
Protocol: The process takes place in two staged reactions. In one experiment, the tetramethyl acetal of IPA (0.114 g, 0.504 mmol) was suspended in 100 mL of water including 67 mg of OPA as the internal standard. A relatively large volume of water was used due to the low solubility of IPA. The pH of the water was adjusted to 4.34 with 1% HCl. At various time intervals 0.5 mL of the reaction mixture was sampled and extracted with 1 mL of ethyl acetate (EtOAc). The samples were analyzed with gas chromatography.
The diacetal starting material disappeared within 8 h, but hydrolysis of the second acetal group of the monoacetal took longer period of time.

[4] = Hydrolysis of 1,3-diethoxyphthalan in the presence of OPA in distilled water at various pH, monitored by GC/MS; assay type: physicochemical
Protocol: The hydrolysis of 1,3-diethoxyphthalan in the presence of OPA in distilled water at various pH was evaluated at room temperature. 1,3-Diethoxyphthalan was added to the OPA solution in distilled water, followed by pH measurement and adjustment with either HCl or NaOH, depending on the pH. The mixtures were stirred at room temperature and monitored by GC/MS at various time intervals.

[5] = Solubility in 30% polyethylene glycol plus water solution; assay type: physicochemical
[6] = pH = 6.95, NaOH adjusted, 120 h
[7] = pH = 6.95, NaOH adjusted, 168 h
[8] = pH = 6.95, NaOH adjusted, 240 h
[9] = pH = 6.95, NaOH adjusted, 312 h
[10] = pH = 6.95, NaOH adjusted, 480 h
[11] = pH = 6.95, NaOH adjusted, 552 h
[12] = pH = 8.9, NaOH adjusted, 1200 h

COC1OC(OC)c2ccccc21 (centres unmarked) [1,3-dimethoxyphthalan]
OPA (w/w %) ([1]; pH = 5.0 (phthalic acid), water, 0 h): 0.000 w/w %
OPA (w/w %) ([1]; pH = 5.0 (phthalic acid), water, 24 h): 0.028 w/w %
OPA (w/w %) ([1]; pH = 5.0 (phthalic acid), water, 120 h): 0.166 w/w %
OPA (w/w %) ([1]; pH = 5.0 (phthalic acid), water, 240 h): 0.301 w/w %
OPA (w/w %) ([1]; pH = 5.0 (phthalic acid), water, 360 h): 0.367 w/w %
OPA (w/w %) ([1]; pH = 5.0 (phthalic acid), water, 480 h): 0.405 w/w %
OPA (w/w %) ([1]; pH = 5.0 (phthalic acid), water, 576 h): 0.417 w/w %

O=Cc1ccccc1C=O [phthalaldehyde, 1,2-benzenedicarboxaldehyde]
Solubility in water [2]: about 5 % by weight

COC(OC)c1cccc(C=O)c1 [Monoacetal]
Mole % in reaction mixture during hydrolysis ([3]; 8 h): 79.7 Mole %
wt % in reaction mixture during hydrolysis ([3]; 8 h): 0.091 wt %
Mole % in reaction mixture during hydrolysis ([3]; 32 h): 33.9 Mole %
wt % in reaction mixture during hydrolysis ([3]; 32 h): 0.039 wt %
Mole % in reaction mixture during hydrolysis ([3]; 54 h): 0 Mole %
wt % in reaction mixture during hydrolysis ([3]; 54 h): 0 wt %

CCOC1OC(OCC)c2ccccc21 (centres unmarked) [1,3-diethoxyphthalan]
OPA (w/w %) ([1]; pH = 5.4, HCl adjusted, water, 0 h): 0.000 w/w %
OPA (w/w %) ([1]; pH = 5.4, HCl adjusted, water, 2 h): 0.024 w/w %
OPA (w/w %) ([1]; pH = 5.4, HCl adjusted, water, 48 h): 0.056 w/w %
OPA (w/w %) ([1]; pH = 5.4, HCl adjusted, water, 120 h): 0.158 w/w %
OPA (w/w %) ([1]; pH = 5.4, HCl adjusted, water, 240 h): 0.296 w/w %
OPA (w/w %) ([1]; pH = 5.4, HCl adjusted, water, 360 h): 0.525 w/w %
OPA (w/w %) ([1]; pH = 5.4, HCl adjusted, water, 480 h): 0.596 w/w %
OPA (w/w %) ([1]; pH = 6.9, water, 0 h): 0.000 w/w %
OPA (w/w %) ([1]; pH = 6.9, water, 1 h): 0.000 w/w %
OPA (w/w %) ([1]; pH = 6.9, water, 20 h): 0.010 w/w %
OPA (w/w %) ([1]; pH = 6.9, water, 144 h): 0.097 w/w %
OPA (w/w %) ([1]; pH = 6.9, water, 240 h): 0.204 w/w %
OPA (w/w %) ([1]; pH = 6.9, water, 359 h): 0.419 w/w %
OPA (w/w %) ([1]; pH = 6.9, water, 480 h): 0.476 w/w %
OPA (w/w %) ([1]; pH = 10.8, NaOH adjusted, water, 48 h): 0.0048 w/w %
OPA (w/w %) ([1]; pH = 10.8, NaOH adjusted, water, 120 h): 0.0062 w/w %
OPA (w/w %) ([1]; pH = 10.8, NaOH adjusted, water, 480 h): 0.0473 w/w %
OPA (w/w %) ([1]; pH = 10.8, NaOH adjusted, water, 720 h): 0.112 w/w %
OPA (w/w %) ([1]; pH = 10.8, NaOH adjusted, water, 960 h): 0.229 w/w %
Acetal % ([4]; pH = 6.95, NaOH adjusted, 0 h): 21.8%
OPA % ([4]; pH = 6.95, NaOH adjusted, 0 h): 78.2%
OPA (w %) ([4]; pH = 6.95, NaOH adjusted, 0 h): 0.498 w %
Acetal % ([4]; pH = 6.95, NaOH adjusted, 48 h): 18.1%
OPA % ([4]; pH = 6.95, NaOH adjusted, 48 h): 81.9%
OPA (w %) ([4]; pH = 6.95, NaOH adjusted, 48 h): 0.509 w %
Acetal % [4, 6]: 12.1%
OPA % [4, 6]: 87.9%
OPA (w %) [4, 6]: 0.527 w %
Acetal % [4, 7]: 9.4%
OPA % [4, 7]: 90.6%
OPA (w %) [4, 7]: 0.535 w %
Acetal % [4, 8]: 6.4%
OPA % [4, 8]: 93.6%
OPA (w %) [4, 8]: 0.543 w %
Acetal % [4, 9]: 4.2%
OPA % [4, 9]: 95.8%
OPA (w %) [4, 9]: 0.550 w %
Acetal % [4, 10]: 1.2%
OPA % [4, 10]: 98.8%
OPA (w %) [4, 10]: 0.559 w %
Acetal % [4, 11]: 0.7%
OPA % [4, 11]: 99.3%
OPA (w %) [4, 11]: 0.560 w %
Acetal % ([4]; pH = 8.0, NaOH adjusted, 0 h): 20.9%
OPA % ([4]; pH = 8.0, NaOH adjusted, 0 h): 79.1%
OPA (w %) ([4]; pH = 8.0, NaOH adjusted, 0 h): 0.498 w %
Acetal % ([4]; pH = 8.0, NaOH adjusted, 48 h): 21.6%
OPA % ([4]; pH = 8.0, NaOH adjusted, 48 h): 78.4%
OPA (w %) ([4]; pH = 8.0, NaOH adjusted, 48 h): 0.496 w %
Acetal % ([4]; pH = 8.0, NaOH adjusted, 144 h): 18.6%
OPA % ([4]; pH = 8.0, NaOH adjusted, 144 h): 81.4%
OPA (w %) ([4]; pH = 8.0, NaOH adjusted, 144 h): 0.505 w %
Acetal % ([4]; pH = 8.0, NaOH adjusted, 240 h): 17%
OPA % ([4]; pH = 8.0, NaOH adjusted, 240 h): 83.0%
OPA (w %) ([4]; pH = 8.0, NaOH adjusted, 240 h): 0.510 w %
Acetal % ([4]; pH = 8.0, NaOH adjusted, 312 h): 15.2%
OPA % ([4]; pH = 8.0, NaOH adjusted, 312 h): 84.8%
OPA (w %) ([4]; pH = 8.0, NaOH adjusted, 312 h): 0.515 w %
Acetal % ([4]; pH = 8.0, NaOH adjusted, 480 h): 10.4%
OPA % ([4]; pH = 8.0, NaOH adjusted, 480 h): 89.6%
OPA (w %) ([4]; pH = 8.0, NaOH adjusted, 480 h): 0.530 w %
Acetal % ([4]; pH = 8.0, NaOH adjusted, 576 h): 8.1%
OPA % ([4]; pH = 8.0, NaOH adjusted, 576 h): 91.9%
OPA (w %) ([4]; pH = 8.0, NaOH adjusted, 576 h): 0.537 w %
Acetal % ([4]; pH = 8.0, NaOH adjusted, 720 h): 3.4%
OPA % ([4]; pH = 8.0, NaOH adjusted, 720 h): 96.6%
OPA (w %) ([4]; pH = 8.0, NaOH adjusted, 720 h): 0.551 w %
Acetal % ([4]; pH = 8.0, NaOH adjusted, 840 h): 2%
OPA % ([4]; pH = 8.0, NaOH adjusted, 840 h): 98.0%
OPA (w %) ([4]; pH = 8.0, NaOH adjusted, 840 h): 0.555 w %
Acetal % ([4]; pH = 8.0, NaOH adjusted, 960 h): 1%
OPA % ([4]; pH = 8.0, NaOH adjusted, 960 h): 99.0%
OPA (w %) ([4]; pH = 8.0, NaOH adjusted, 960 h): 0.558 w %
Acetal % ([4]; pH = 8.9, NaOH adjusted, 0 h): 21.8%
OPA % ([4]; pH = 8.9, NaOH adjusted, 0 h): 78.2%
OPA (w %) ([4]; pH = 8.9, NaOH adjusted, 0 h): 0.498 w %
Acetal % ([4]; pH = 8.9, NaOH adjusted, 96 h): 21.4%
OPA % ([4]; pH = 8.9, NaOH adjusted, 96 h): 78.6%
OPA (w %) ([4]; pH = 8.9, NaOH adjusted, 96 h): 0.498 w %
Acetal % ([4]; pH = 8.9, NaOH adjusted, 240 h): 18.8%
OPA % ([4]; pH = 8.9, NaOH adjusted, 240 h): 81.2%
OPA (w %) ([4]; pH = 8.9, NaOH adjusted, 240 h): 0.507 w %
Acetal % ([4]; pH = 8.9, NaOH adjusted, 336 h): 17.2%
OPA % ([4]; pH = 8.9, NaOH adjusted, 336 h): 82.8%
OPA (w %) ([4]; pH = 8.9, NaOH adjusted, 336 h): 0.511 w %
Acetal % ([4]; pH = 8.9, NaOH adjusted, 480 h): 13.8%
OPA % ([4]; pH = 8.9, NaOH adjusted, 480 h): 86.2%
OPA (w %) ([4]; pH = 8.9, NaOH adjusted, 480 h): 0.521 w %
Acetal % ([4]; pH = 8.9, NaOH adjusted, 600 h): 11.0%
OPA % ([4]; pH = 8.9, NaOH adjusted, 600 h): 89.0%
OPA (w %) ([4]; pH = 8.9, NaOH adjusted, 600 h): 0.530 w %
Acetal % ([4]; pH = 8.9, NaOH adjusted, 720 h): 6.7%
OPA % ([4]; pH = 8.9, NaOH adjusted, 720 h): 93.3%
OPA (w %) ([4]; pH = 8.9, NaOH adjusted, 720 h): 0.542 w %
Acetal % ([4]; pH = 8.9, NaOH adjusted, 840 h): 4.6%
OPA % ([4]; pH = 8.9, NaOH adjusted, 840 h): 95.4%
OPA (w %) ([4]; pH = 8.9, NaOH adjusted, 840 h): 0.548 w %
Acetal % ([4]; pH = 8.9, NaOH adjusted, 960 h): 3.0%
OPA % ([4]; pH = 8.9, NaOH adjusted, 960 h): 97.0%
OPA (w %) ([4]; pH = 8.9, NaOH adjusted, 960 h): 0.553 w %
Acetal % [4, 12]: 1.2%
OPA % [4, 12]: 98.8%
OPA (w %) [4, 12]: 0.558 w %
Dependence of hydrolysis rate on pH ([4]; range of pH investigated): the hydrolysis rate increases with decreasing pH

O=Cc1cccc(C=O)c1 [IPA, 1,3-benzenedicarboxaldehyde, reference compound]
Mole % in reaction mixture during hydrolysis ([3]; 8 h): 20.3 Mole %
wt % in reaction mixture during hydrolysis ([3]; 8 h): 0.014 wt %
Mole % in reaction mixture during hydrolysis ([3]; 32 h): 66.1 Mole %
wt % in reaction mixture during hydrolysis ([3]; 32 h): 0.045 wt %
Mole % in reaction mixture during hydrolysis ([3]; 54 h): 100 Mole %
wt % in reaction mixture during hydrolysis ([3]; 54 h): 0.068 wt %
Solubility [5]: less than 0.4%
